Experimental findings from PubChem BioAssay AID857 (Vanderbilt High Throughput Screening Facility, 2007) are described below.

SMILES strings stand for the structures. Active and inactive are the calls of the source.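 Rule for the calls: active = a full or partial dose-response curve in at least two of three replicate runs; inactive = the rest.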

Sequence of D(1B) dopamine receptor (Homo sapiens) (P21918 whole entry, looked up): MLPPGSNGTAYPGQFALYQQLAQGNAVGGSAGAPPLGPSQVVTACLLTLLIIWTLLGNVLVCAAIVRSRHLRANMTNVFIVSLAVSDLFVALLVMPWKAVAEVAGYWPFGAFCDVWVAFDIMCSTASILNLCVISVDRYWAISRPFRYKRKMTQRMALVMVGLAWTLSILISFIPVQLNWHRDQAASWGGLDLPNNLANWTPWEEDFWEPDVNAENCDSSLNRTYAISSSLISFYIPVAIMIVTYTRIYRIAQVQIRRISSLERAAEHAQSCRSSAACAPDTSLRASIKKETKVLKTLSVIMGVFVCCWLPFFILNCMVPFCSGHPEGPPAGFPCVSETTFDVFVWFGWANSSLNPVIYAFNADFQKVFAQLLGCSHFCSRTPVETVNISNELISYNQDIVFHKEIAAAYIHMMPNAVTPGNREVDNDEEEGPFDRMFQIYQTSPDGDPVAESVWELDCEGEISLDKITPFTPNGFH

The assay has as its target D(1B) dopamine receptor (Homo sapiens) (UniProt P21918). Put plainly: dopamine D5 receptor modulation at EC30 dopamine, dose response, selectivity assay for D1 allosteric modulator project, cell-based, HEK293, CRE-luciferase, luminescence (AID 857).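 Note: HEK 293 cells expressing human D5 with a CRE-driven luciferase reporter.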
Regarding `Cn1c(=O)c2[nH]c(NCC3CCCO3)nc2n(-c2ccccc2)c1=O` (stereo not drawn), the outcome was inactive. Still for that read-out and setting: the entry for `COc1ccc(OC)c(/C=N/c2oc(-c3ccco3)c(-c3ccco3)c2C#N)c1` is “inactive”; for `COC(=O)c1cc(NC(=O)CSc2nc(C)cc(=O)[nH]2)cc(C(=O)OC)c1` it is “inactive”; for `CC(=O)Oc1c(Cl)c(N2CCOCC2)c(OC(C)=O)c2ccccc12` it is “inactive”. On to `Cc1cc(=O)c2n(Cc3ccc(Cl)cc3)nc[n+]2[nH]1`, for which the result was inactive. Same read-out and setting: the entry for `CCOc1ccccc1C1NC(=O)NC(C)=C1C(=O)OC1CCCCC1` (stereo not drawn) is “inactive”; for `CCNc1nc(NC(C)(C)C)nc(N(CC)n2cnnc2)n1` it is “inactive”. `NC(=O)c1oc2ccccc2c1NC(=O)c1ccc(F)cc1`: the outcome was inactive. For the compound `CCn1ncc(C2=NOC(C(=O)NCc3ccccc3)C2)c1C` (stereo not drawn), the outcome was inactive. Still for that read-out and setting: the entry for `CCOC(=O)c1[nH]cnc1C(=O)Nc1ccccn1` is “inactive”; for `CC1(C)Cc2c(C#N)c(N3CCCC3)nc(-c3ccco3)c2CO1` it is “inactive”. Take `COc1cccc(N2C(=O)C3ON(c4ccccc4)C(c4cccs4)C3C2=O)c1` (stereo not drawn): the outcome was inactive.

As for `COc1ccc(C2CC(=O)Nc3ccccc3S2(=O)=O)cc1OC` (stereo not drawn), the outcome was inactive. Turning to `CCN(CC)c1nc(N)c2c(N)nc3c(c2c1C#N)CC(c1ccccc1)O3` (stereo not drawn), the outcome was inactive. As for `COc1ccc(-n2nc3ccccc3n2)cc1`, the outcome was inactive.

On to `CSc1ccccc1NC(=O)c1onc(C)c1Cl`, for which the outcome was inactive. `c1ccc(C2=Nn3c(nnc3-c3ccncc3)SC2)cc1`: the result was inactive.

Turning to `Cc1cc(C)n(-c2nc3ccccc3nc2Nc2ccc(CC(=O)O)cc2)n1`, the EC50 was 1110 nM.

On to `Nc1ncnc2c1ncn2CCOc1ccccc1`, for which the result was inactive. As to `CCOC(=O)Nc1sc(C(=O)N(CC)CC)c(C)c1C(=O)OCC`, the result was inactive.

In the case of `CCOc1cc(C2C(C#N)=C(N)Oc3n[nH]c(-c4ccccc4)c32)ccc1O` (stereo not drawn), the outcome was inactive. For the compound `CC1(C)Cc2c(C#N)c(NC3CCCCC3)nc(-c3ccco3)c2CO1`, the result was inactive. Take `CN1CCN(CC(O)COCc2ccc3c(c2)OCO3)CC1` (stereo not drawn): the result was inactive. Same read-out and setting: to `COc1ccc(NC(=O)c2ccc(NS(=O)(=O)c3c(C)noc3C)cc2)cc1OC` belongs “inactive”; to `Cc1cccc(-c2c3c(=O)n(C)c(=O)n(C)c3cn2-c2ccccc2O)c1`, “inactive”; to `CC(=O)c1cc(C#N)c(SCC(=O)OC(C)(C)C)nc1C`, “inactive”. Same read-out and setting: the entry for `Cc1cc(O)c(C=Nc2cccc(Cl)c2)c(=O)o1` is “inactive”; for `CCC(=O)N1CCc2cc(S(=O)(=O)NCCC(=O)NC3CCCc4ccccc43)ccc21` (stereo not drawn) it is “inactive”; for `N#CCSc1nc2c(sc(=S)n2Cc2ccco2)c(=O)n1-c1ccc(F)cc1` it is “inactive”. With `COC(=O)c1ccccc1NC(=O)c1ccc2c(c1)OCCO2`, the result was inactive.

Take `COc1ccc(-c2nnc(-c3ccc(Br)o3)o2)cc1OC`: the outcome was inactive. Regarding `CCOC(=O)c1c(C)oc2c1c(C=NCc1ccccn1)c(O)c1ccccc12`, the outcome was inactive. Take `CCOC(=O)c1oc2ccc(S(=O)(=O)N3CCOCC3)cc2c1C`: the result was inactive.

On to `COC(=O)c1sc2ccccc2c1C(=O)OC`, for which the outcome was inactive. Turning to `COc1ccc(-c2c3c(=O)n(C)c(=O)n(C)c3cn2-c2ccccc2)cc1`, the outcome was inactive. Same read-out and setting: to `O=C(CSc1nc2ccccc2s1)NC(=O)NCc1ccco1` belongs “inactive”; to `CCOC(=O)C1CCCN(c2nc3ccccc3nc2C(C#N)C(=O)OCC)C1` (stereo not drawn), “inactive”; to `Clc1cccc(Nc2c3c(nc4ncnn24)CCC3)c1`, “inactive”. Consider `O=C(CCc1ccc(CCC(=O)c2cccs2)s1)c1cccs1`, for which the outcome was inactive. For `CCC(=O)Nc1cccc(NC(=O)c2cc3ccccc3o2)c1`, the result was inactive.

With `CCc1nnc(NC(=O)CSc2ncc(-c3ccccc3)n2CC)s1`, the outcome was inactive. As for `N#Cc1cc2ccccc2nc1SCC(=O)Nc1ccc(S(=O)(=O)N2CCCC2)cc1`, the result was inactive. `O=C1COc2ccc(C(=O)c3ccccc3)cc2CN1`: the result was inactive. The same measure, in the same setting: to `Cc1cc(NS(=O)(=O)c2ccc(NC(=O)COc3ccccc3C(C)C)cc2)no1` belongs “inactive”; to `CS(=O)(=O)c1sc2nc(-c3cccs3)cc(-c3ccccc3)c2c1N`, “inactive”; to `CSc1oc(-c2ccco2)nc1S(=O)(=O)c1ccc(F)cc1`, “inactive”. With `O=C(CCSc1nc2ccccc2o1)N1CCOCC1`, the outcome was inactive. The same measure, in the same setting: to `COc1cc2[nH]c(=S)n(C3CCCC3)c(=O)c2cc1OC` belongs “inactive”; to `CCC(C)Sc1nc2c(c(=O)n1C)SC(C)C2` (stereo not drawn), “inactive”. The same measure, in the same setting: the entry for `Cc1ccc(-n2c(SCC(=O)OC(C)C)nnc2-c2cnccn2)cc1` is “inactive”. As to `CCOc1nc(NCCc2ccc(OC)c(OC)c2)nc(NC(C)(C)CO)n1`, the result was inactive. For the compound `CC(=O)Nc1nc2n(n1)C(c1ccccc1)C=C(c1ccccc1)N2` (stereo not drawn), the outcome was inactive.

As to `COc1ccc(Cl)cc1C(=O)CSc1nnnn1C1CCCC1`, the EC50 was 661 nM. `Cc1cc(=O)n(CC=C(Cl)Cl)c2ccccc12`: the result was inactive. For `CCOC(=O)C1=C(C)Nc2nc(SC)nn2C1c1ccc(C(=O)OC)cc1` (stereo not drawn), the result was inactive. On the same count and under the same terms, to `COc1ccccc1NC(=O)CC1Nc2ccccc2NC1=O` (stereo not drawn) belongs “inactive”. For the compound `CCn1cc(C(=O)OCC(=O)OC2CC(C)CCC2C(C)C)c(=O)c2ccc(C)nc21` (stereo not drawn), the result was inactive.

On to `O=C(OCC#CCSc1nnc(-c2ccc(Br)cc2)o1)c1ccco1`, for which the result was inactive. As for `Cc1cc(-n2nc(C)cc2C)nc(NS(=O)(=O)c2ccccc2)n1`, the outcome was inactive. As to `COc1ccc(OC)c(C2C=C(c3ccc(C)c(C)c3)Nc3nnnn32)c1` (stereo not drawn), the result was inactive. On the same count and under the same terms, the entry for `COc1ccc(-c2cc(=O)oc3c(C)c(O)c(CN(C)C)cc23)cc1` is “inactive”; for `O=C1CSc2ccccc2N1Cc1ccccc1F` it is “inactive”. As to `N#Cc1c(N)nc(-c2ccccc2)nc1-c1ccccc1`, the result was inactive. On the same count and under the same terms, the entry for `N#Cc1cn(-c2ccccc2)nc1-c1ccccc1` is “inactive”; for `NC(=O)c1c(NC(=O)CSc2nnc(-c3ccco3)n2-c2ccccc2)sc2c1CCC2` it is “inactive”; for `CSc1nncc(-c2ccc(F)c(F)c2)n1` it is “inactive”. Turning to `O=S(=O)(c1cccs1)N1CCN(c2ccccn2)CC1`, the result was inactive.

With `CCn1nc(C(=O)OCC(=O)N2c3ccccc3CC2C)c2ccccc2c1=O` (stereo not drawn), the result was inactive. With `CCOc1ccccc1C1CC(c2ccccc2)Nc2nc(N)nn21` (stereo not drawn), the result was inactive. Take `COc1ccc(S(=O)(=O)N(C)c2ccc(C(=O)N3CCOCC3)cc2)cc1OC`: the outcome was inactive. For the compound `C=CCNC(=O)C1CC(c2cccc(OC)c2)=NO1` (stereo not drawn), the outcome was inactive.

In the case of `O=c1[nH]c2cc3c(cc2cc1C(c1nnnn1C1CCCC1)N1CCSCC1)OCCO3` (stereo not drawn), the result was inactive. Still for that read-out and setting: to `Cc1ccc(-n2cnnn2)c2cccnc12` belongs “inactive”; to `CCCCn1c(=O)c(C(=O)Nc2cnccn2)c(O)c2ccccc21`, “inactive”. Take `CCOC(=O)c1c(NC(=O)c2cccs2)sc(C)c1CC`: the result was inactive.

Take `COc1ccc(-c2noc(-c3ccco3)n2)cc1OC`: the outcome was inactive. Consider `CCCCSc1nc2c(cnn2-c2ccc(F)cc2)c(=O)[nH]1`, for which the outcome was inactive.

As for `CCOC(=O)c1c(C)c(C(=O)NCc2ccc3c(c2)OCO3)c(C)n1C`, the result was inactive.

Regarding `CSC1=NCCN1C(=O)c1ccc(Br)o1`, the outcome was inactive. With `CC(=O)N=c1sc2nc3ccccc3nc2n1N(C(C)=O)C(C)=O`, the outcome was inactive. As for `Cc1cc2cc(CN(CCN3CCOCC3)C(=O)Nc3ccccc3F)c(=O)[nH]c2cc1C`, the result was inactive. On the same count and under the same terms, the entry for `COC(=O)c1cccc(N2C(=O)C(Cl)=C(N3CCOCC3)C2=O)c1` is “inactive”. Still for that read-out and setting: the entry for `COc1ccccc1NC(=O)N(Cc1ccc2c(c1)OCO2)Cc1nc2ccccc2c(=O)[nH]1` is “inactive”; for `CC(C)Cn1c(=O)c(C(=O)Nc2cnccn2)c(O)c2ccccc21` it is “inactive”. In the case of `COc1ccc(CN2CCN(S(=O)(=O)c3ccccc3)CC2)c(OC)c1`, the outcome was inactive. As for `Nc1nc(SCc2ccc3c(c2)OCCO3)n[nH]1`, the result was inactive. In the case of `Cc1noc(C)c1CSc1ncnc2ccccc12`, the result was inactive.

As to `NC1=NC(c2cn(-c3ccccc3)nc2-c2cccs2)n2c(nc3ccccc32)N1` (stereo not drawn), the outcome was inactive. In the case of `Cc1ccc(Oc2ccccc2)c(NC=O)c1`, the result was inactive. As to `C=CCn1c(=S)[nH]c2nc3c(cc2c1=O)CCCC3`, the result was inactive. As to `O=C1COc2ccccc2N1Cc1ccccc1Cl`, the outcome was inactive. For the compound `c1ccc(Cn2nnc3c(N4CCc5ccccc54)ncnc32)cc1`, the outcome was inactive. Still for that read-out and setting: the entry for `Cc1c(C)c2ccc(OC3CCCCC3=O)cc2oc1=O` (stereo not drawn) is “inactive”; for `CCOC(=O)N1CCC(NC(=O)c2cccc3c2C(=O)N(Cc2cccnc2)C3)CC1` it is “inactive”. Take `Nc1nonc1-n1nnc(C(=O)c2ccccc2)c1-c1ccccc1`: the result was inactive. Turning to `OCCn1nc2c3ccccc3nc-2n(-c2ccccc2)c1=S`, the outcome was inactive. Still for that read-out and setting: the entry for `COc1ccc(C(=O)Nc2nnc(Cc3cccs3)s2)cc1OC` is “inactive”; for `CCc1ccc(C2=Nn3c(nnc3-c3cccs3)SC2)cc1` it is “inactive”.

One may read the EC50 as the concentration that produces a half-maximal response.
